Here are results for one molecule from ChEMBL document CHEMBL3286339, “Synthesis and in vivo SAR study of indolin-2-one-based multi-targeted inhibitors as potential anticancer agents” (Eur J Med Chem, 2014).

A value given as a limit tells only on which side of the number the result lay.

The target in data set [1] is Vascular endothelial growth factor receptor 1 (Homo sapiens, UniProt P17948). Put plainly: Inhibition of VEGFR1 (unknown origin) at 1 uM relative to control.
The test system of data set [2] is Mus musculus. Put plainly: Toxicity in BALB/c nude mouse xenografted with human HT-29 cells assessed as bloody stool at 80 mg/kg/day administered qd measured up to day 21. To be noted: in vivo. The format is organism-based.
The target of data set [3] is Phosphorylase b kinase gamma catalytic chain, liver/testis isoform (Homo sapiens, UniProt P15735). Put plainly: Binding affinity to PHKgamma2 (unknown origin).
Data set [4] deals with Mast/stem cell growth factor receptor Kit (Homo sapiens, UniProt P10721). Put plainly: Binding affinity to c-KIT (unknown origin).
The target of data set [5] is Tyrosine-protein kinase ABL2 (Homo sapiens, UniProt P42684). Put plainly: Binding affinity to ARG (unknown origin).
Data set [6] concerns Mus musculus. Put plainly: Toxicity in BALB/c nude mouse xenografted with human NCI-H460 cells assessed as severe weight loss at 40 mg/kg/day administered qd. To be noted: in vivo. The data set is classed as organism-based. In general terms: In xenograft studies the graft and the host belong to different species.
The test system of data set [7] is Mus musculus. Put plainly: Toxicity in BALB/c nude mouse xenografted with human NCI-H460 cells assessed as change in body weight at 40 mg/kg/day administered qd relative to control. The format is organism-based. The following applies: in vivo.
In data set [8] the target is Receptor-type tyrosine-protein kinase FLT3 (Homo sapiens, UniProt P36888). Put plainly: Binding affinity to FLT3 (unknown origin).
In data set [9] the test system is NCI-H460. Put plainly: Antiproliferative activity against human NCI-H460 cells after 72 hrs by MTT assay. The format is functional, cell-based. To be noted: NCI-H460, 72 h. A general note: Tetrazolium assays rely on reduction of a dye to a coloured formazan, in cell work by metabolically active cells.
Data set [10] concerns the target Tyrosine-protein kinase Fyn (Homo sapiens, UniProt P06241). Put plainly: Binding affinity to FYN (unknown origin).
Data set [11] relates to NCI-H460. Put plainly: Antitumor activity against human NCI-H460 cells xenografted in BALB/c nude mouse assessed as tumor growth inhibition at 40 mg/kg/day administered qd measured up to day 21 relative to control. The data set is classed as functional. To be noted: NCI-H460, 504 h, read-out: TGI.
Data set [12] deals with Tyrosine-protein kinase receptor UFO (Homo sapiens) (UniProt P30530). The following applies: 1 uM.
Description: Inhibition of AXL (unknown origin) at 1 uM relative to control
In data set [13] the target is Fibroblast growth factor receptor 3 (Homo sapiens, UniProt P22607). Put plainly: Binding affinity to FGFR3 (unknown origin).
Fibroblast growth factor receptor 3, sequence (P22607 whole entry): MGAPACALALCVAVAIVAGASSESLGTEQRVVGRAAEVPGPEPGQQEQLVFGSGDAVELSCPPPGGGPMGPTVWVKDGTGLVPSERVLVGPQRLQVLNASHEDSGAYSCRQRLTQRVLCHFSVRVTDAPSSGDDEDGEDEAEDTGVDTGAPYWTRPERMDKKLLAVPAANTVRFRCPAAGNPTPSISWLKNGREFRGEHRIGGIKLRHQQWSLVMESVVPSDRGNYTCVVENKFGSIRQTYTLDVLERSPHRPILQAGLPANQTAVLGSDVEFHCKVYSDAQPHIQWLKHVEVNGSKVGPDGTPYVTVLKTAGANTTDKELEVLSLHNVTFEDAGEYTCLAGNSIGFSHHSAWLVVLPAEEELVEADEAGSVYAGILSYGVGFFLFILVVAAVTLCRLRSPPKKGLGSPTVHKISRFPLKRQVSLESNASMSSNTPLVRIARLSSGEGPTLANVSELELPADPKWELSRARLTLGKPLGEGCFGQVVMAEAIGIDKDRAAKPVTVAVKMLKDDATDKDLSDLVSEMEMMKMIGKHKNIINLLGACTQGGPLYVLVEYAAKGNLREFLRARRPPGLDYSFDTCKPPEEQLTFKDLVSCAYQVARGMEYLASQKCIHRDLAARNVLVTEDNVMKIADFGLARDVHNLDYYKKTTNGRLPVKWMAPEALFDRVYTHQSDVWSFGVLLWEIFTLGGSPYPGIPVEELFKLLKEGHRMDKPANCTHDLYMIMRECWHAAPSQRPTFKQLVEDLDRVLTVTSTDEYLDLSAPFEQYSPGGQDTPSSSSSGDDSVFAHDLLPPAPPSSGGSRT

Mast/stem cell growth factor receptor Kit, sequence (P10721 whole entry): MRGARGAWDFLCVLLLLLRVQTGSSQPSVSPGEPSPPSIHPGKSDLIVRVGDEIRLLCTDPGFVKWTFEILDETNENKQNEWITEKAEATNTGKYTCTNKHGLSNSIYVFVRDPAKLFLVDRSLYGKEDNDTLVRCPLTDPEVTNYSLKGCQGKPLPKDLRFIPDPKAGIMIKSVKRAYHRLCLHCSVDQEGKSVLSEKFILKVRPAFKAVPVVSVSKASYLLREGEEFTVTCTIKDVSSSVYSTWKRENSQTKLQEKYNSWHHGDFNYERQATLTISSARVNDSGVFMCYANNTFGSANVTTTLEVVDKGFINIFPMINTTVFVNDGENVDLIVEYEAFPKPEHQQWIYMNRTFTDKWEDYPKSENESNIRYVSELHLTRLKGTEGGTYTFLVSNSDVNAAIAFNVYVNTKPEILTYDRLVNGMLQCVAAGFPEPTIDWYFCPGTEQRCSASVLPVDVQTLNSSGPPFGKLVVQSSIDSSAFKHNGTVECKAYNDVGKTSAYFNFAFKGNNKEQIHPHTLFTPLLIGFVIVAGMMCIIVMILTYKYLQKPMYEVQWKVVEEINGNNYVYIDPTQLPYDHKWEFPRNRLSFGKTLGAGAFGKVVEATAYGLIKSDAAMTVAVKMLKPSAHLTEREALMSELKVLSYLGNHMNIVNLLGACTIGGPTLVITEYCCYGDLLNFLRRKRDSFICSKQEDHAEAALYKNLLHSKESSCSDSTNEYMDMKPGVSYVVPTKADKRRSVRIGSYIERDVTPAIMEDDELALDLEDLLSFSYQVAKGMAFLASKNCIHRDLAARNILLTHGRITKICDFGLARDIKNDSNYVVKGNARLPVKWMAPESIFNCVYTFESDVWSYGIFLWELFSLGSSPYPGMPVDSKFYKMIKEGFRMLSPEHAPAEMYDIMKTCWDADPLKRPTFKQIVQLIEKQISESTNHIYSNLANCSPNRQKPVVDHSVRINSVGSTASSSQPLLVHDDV
Vascular endothelial growth factor receptor 1, sequence (P17948 whole entry): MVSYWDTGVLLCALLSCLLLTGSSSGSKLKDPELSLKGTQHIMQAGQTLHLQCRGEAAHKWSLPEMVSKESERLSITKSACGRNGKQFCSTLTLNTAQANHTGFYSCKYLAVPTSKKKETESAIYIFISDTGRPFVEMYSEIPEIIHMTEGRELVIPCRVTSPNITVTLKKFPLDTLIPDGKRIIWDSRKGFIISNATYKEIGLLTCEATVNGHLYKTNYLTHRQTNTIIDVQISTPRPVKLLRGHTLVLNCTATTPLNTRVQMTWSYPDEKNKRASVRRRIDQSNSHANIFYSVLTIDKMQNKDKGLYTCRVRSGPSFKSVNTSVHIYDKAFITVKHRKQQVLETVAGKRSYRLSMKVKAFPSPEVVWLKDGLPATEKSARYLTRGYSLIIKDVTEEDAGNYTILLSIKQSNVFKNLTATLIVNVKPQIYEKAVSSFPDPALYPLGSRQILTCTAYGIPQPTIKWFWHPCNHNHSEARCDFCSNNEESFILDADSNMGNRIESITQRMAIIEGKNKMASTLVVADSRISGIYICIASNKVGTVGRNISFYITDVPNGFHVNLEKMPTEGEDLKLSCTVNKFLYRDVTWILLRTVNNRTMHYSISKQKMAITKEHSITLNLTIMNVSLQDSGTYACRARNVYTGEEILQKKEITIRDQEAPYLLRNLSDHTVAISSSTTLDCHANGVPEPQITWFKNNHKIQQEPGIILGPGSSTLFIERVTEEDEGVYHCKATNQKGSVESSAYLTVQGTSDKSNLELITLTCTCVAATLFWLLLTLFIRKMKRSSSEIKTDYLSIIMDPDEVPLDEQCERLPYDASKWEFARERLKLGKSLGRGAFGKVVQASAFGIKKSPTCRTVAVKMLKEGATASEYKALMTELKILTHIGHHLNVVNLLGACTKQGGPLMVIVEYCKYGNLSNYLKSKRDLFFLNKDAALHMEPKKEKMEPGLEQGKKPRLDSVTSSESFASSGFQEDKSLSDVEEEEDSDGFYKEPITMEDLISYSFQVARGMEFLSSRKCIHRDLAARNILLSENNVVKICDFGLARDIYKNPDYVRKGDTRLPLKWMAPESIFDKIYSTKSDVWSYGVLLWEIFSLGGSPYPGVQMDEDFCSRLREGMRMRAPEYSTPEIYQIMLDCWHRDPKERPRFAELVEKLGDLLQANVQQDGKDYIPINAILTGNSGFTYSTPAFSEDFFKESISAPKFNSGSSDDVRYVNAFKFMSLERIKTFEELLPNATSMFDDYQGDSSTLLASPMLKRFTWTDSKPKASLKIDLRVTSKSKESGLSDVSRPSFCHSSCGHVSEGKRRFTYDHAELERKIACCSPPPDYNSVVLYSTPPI
Tyrosine-protein kinase receptor UFO (Homo sapiens), sequence (P30530 whole entry): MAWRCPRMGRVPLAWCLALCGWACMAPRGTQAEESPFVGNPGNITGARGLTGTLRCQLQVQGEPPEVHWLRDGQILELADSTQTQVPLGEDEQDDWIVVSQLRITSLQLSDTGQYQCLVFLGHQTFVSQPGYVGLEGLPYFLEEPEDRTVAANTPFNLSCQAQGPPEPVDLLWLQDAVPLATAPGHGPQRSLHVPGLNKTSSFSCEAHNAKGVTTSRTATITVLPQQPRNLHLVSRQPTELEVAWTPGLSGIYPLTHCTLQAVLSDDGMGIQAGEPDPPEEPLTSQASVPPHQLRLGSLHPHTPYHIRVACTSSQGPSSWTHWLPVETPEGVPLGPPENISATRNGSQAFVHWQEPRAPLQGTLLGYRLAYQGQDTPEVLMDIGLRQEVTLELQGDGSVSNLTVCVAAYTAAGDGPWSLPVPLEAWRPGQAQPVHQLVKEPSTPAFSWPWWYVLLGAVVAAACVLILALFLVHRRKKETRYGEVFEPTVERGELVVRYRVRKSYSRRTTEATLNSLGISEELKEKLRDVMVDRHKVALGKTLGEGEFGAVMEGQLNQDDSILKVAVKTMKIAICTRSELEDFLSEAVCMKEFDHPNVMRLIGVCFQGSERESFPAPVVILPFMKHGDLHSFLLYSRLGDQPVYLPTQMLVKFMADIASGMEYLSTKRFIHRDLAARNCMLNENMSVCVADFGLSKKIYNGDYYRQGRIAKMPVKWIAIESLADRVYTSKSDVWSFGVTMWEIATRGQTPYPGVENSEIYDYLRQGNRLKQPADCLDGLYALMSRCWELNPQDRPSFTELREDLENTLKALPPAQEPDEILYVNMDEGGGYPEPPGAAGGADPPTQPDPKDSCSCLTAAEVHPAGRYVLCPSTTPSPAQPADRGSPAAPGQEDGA
Tyrosine-protein kinase Fyn, sequence (P06241 whole entry): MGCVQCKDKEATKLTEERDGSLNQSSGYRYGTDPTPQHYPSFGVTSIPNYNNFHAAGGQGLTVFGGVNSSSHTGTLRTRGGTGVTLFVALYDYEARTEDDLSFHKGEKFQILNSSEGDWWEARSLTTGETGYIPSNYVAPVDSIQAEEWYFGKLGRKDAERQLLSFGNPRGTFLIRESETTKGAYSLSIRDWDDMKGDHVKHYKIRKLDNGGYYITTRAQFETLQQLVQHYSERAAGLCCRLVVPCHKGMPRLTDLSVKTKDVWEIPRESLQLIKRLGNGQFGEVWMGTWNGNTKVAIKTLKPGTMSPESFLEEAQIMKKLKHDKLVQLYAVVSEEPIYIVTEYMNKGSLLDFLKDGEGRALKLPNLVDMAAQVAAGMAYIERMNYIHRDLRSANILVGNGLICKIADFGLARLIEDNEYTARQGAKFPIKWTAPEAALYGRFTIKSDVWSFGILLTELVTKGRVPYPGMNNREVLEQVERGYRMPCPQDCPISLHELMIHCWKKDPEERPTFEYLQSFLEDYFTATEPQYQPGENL
Phosphorylase b kinase gamma catalytic chain, liver/testis isoform, sequence (P15735 whole entry, canonical isoform): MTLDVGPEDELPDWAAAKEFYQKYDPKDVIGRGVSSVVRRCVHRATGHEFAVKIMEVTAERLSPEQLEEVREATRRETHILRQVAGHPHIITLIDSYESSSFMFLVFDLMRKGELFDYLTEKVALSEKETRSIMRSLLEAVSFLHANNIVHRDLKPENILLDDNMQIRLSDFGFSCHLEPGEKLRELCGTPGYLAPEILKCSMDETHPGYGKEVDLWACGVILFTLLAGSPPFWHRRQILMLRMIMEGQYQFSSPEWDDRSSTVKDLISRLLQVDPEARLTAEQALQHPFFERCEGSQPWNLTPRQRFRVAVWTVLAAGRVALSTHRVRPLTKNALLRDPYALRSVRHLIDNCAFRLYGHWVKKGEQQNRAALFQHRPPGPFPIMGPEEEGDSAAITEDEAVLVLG

As usually defined, the inhibition is the share of the control response that was lost under treatment. High values mean strong suppression, low ones little suppression. One may read the Ki as the equilibrium dissociation constant of an inhibitor or competing ligand from its target. A low value points to higher affinity. What is called IC50 is the concentration that gives 50% inhibition. A low value points to greater potency in that assay. Take `Cc1[nH]c(/C=C2\C(=O)Nc3ccc(F)cc32)c(C)c1NC(=O)CCN1CCN(C)CC1`: the inhibition in data set [1] came out at 52%; in data set [12] it was 95%. Further, the values for the Activity entry with Mus musculus [2], in the data set with Mus musculus [6] and with Mus musculus [7] were “Non-toxic”, “Non-toxic” and 1.4%, respectively. Moreover, the inhibition constant (Ki) is 840 nM in data set [3]; 200 nM in data set [4]; 180 nM in data set [5]; less than 0.3 nM in data set [8]; 1800 nM in data set [10]; 89 nM in data set [13]. The molecule also came in with an IC50 in the data set with NCI-H460 [9] of 6110 nM. The inhibition in vivo at 40 mg/kg/day in the data set with NCI-H460 [11] was 60.6%.
